Measurements reported in patent US20080063601A1, “Compositions and methods relating to polycystic kidney disease” (priority 2004, published 2008).

Assays:
[1] = tested on: Pkd1^−/− murine kidney epithelial cells; assay: Growth, p21 and active caspase-3 in Pkd1−/− kidney epithelial cells; assay type: cell-based; settings: 100 nM
Description: Total cell lysates (0.5% Triton X-100, 50 mM Tris pH 7.4, 150 mM NaCl, […]) were prepared for Western blot analysis and samples were run out by SDS-PAGE as per manufacturers' protocols. Brightfield images of cells were taken using a 10× or 40× objective. Confocal microscopy (40×) was used for immunofluorescence imaging of polycystin-2.
Calcium response to triptolide was, thus, shown to be dependent on polycystin-2. The biological response to calcium flux was next assessed in the murine Pkd1^−/− cell line, by adding 100 nM triptolide to the cultured cells and observing cell growth over time. Within the first 24 hours of culture, a minimal number of detached cells was observed. […] In the absence of triptolide, this cell line underwent a population doubling every 48 hours. […] It is possible that additional signaling pathways are activated by triptolide when Pkd1 is expressed. […] Therefore, Applicant assessed whether the inhibition of proliferation observed was due to p21 re-expression upon triptolide treatment.

HeLa cells [2] = assay: [3H]-triptolide labeling followed by cellular fractionation; assay type: binding
Description: To address first the nature of triptolide binding within the cell, Applicant determined this interaction was reversible as [^3H]-triptolide labeling was out competed by subsequent addition of excess unlabeled triptolide (FIG. 4A). […] Although 25% of the total cellular counts (i.e., representing bound triptolide) were found in the cytosolic fraction, it is uncertain whether this is specific binding or simply that free triptolide had dissociated from its binding protein due to experimental manipulation during fractionation. Since the data thus far had only shown binding within whole cells, Applicant next determined if this triptolide binding protein could be further characterized and/or enriched by its association with chromatographic reagents. HeLa cells were once again labeled with [^3H]-triptolide and total cell lysates were then passed over the anion exchange resin DEAE. […] Importantly, Applicant also observed that [^3H]-triptolide would only bind to intact cells in culture but would not bind to any component of a total cellular lysate as assessed by interaction with the DEAE resin. […]
For cellular fractionation studies, cells were allowed to swell on ice and lysed by passage through a syringe in a hypotonic lysis buffer (10 mM Tris-HCl+complete protease inhibitors). […] Gel slices were measured out in equal increments and the molecular weight range of each was calculated. […]

polycystin-2 = assay: Fluo-4 calcium imaging in murine kidney epithelial cells; assay type: cell-based
Description: Cells were plated on coverslips and loaded with Fluo-4 (Molecular Probes) diluted in DMSO/pluronic for 30 minutes prior to imaging. Cells were perfused with a calcium imaging buffer (HEPES, NaCl, KCl, MgSO4 and CaCl2) ±100 nM triptolide. All cell traces are indicative of individual cellular fluorescence and calcium release. Data is presented as change of fluorescence over baseline control (before triptolide addition).
Murine kidney epithelial cell lines with differing polycystin-1 or polycystin-2 expression were used to establish a cellular based mechanism for polycystin-2 mediated calcium release in response to triptolide. Because the biochemical purification analysis identified polycystin-2 as a putative triptolide binding protein, Applicant assessed whether the calcium release was dependent upon expression of polycystin-1. Epithelial cells derived from the proximal nephric tubules of Pkd1^−/− mice were first examined to determine if calcium release was observed when 100 nM of triptolide was perfused through the imaging chamber. […] To strengthen the evidence that polycystin-2 was necessary for calcium release elicited by triptolide addition, it was reconstituted by stable expression of Pkd2 into the background of Pkd2^−/− cells, which were assessed for sensitivity to triptolide.

HeLa cells [3] = assay: HeLa cell viability by trypan blue dye exclusion; assay type: cell-based
Description: Since extracellular calcium concentration can influence triptolide binding Applicant sought to determine if the presence of calcium influences the rate of triptolide-mediated apoptosis. To first establish the growth rate of HeLa in media±calcium, cell counts were performed over a 72 hour time course. Although calcium-free media caused cells to detach more easily, the overall growth rates were similar where cell doubling occurred every 24 hours on average (FIG. 5B). For triptolide experiments, cells were initially equilibrated in medium±calcium for 16 hours before the addition of 100 nM triptolide. Cell death was assessed by trypan blue dye exclusion at 24, 48, and 72 hours post drug treatment. In the presence of calcium-containing medium, triptolide induced at least 50% cell death by 24 hours with this trend continuing through later time points (FIG. 5C).
Applicant's results have implicated reversible binding of triptolide to a potential binding protein or complex that can be regulated by calcium. To understand if triptolide function is further separable between cell death and NFκB inhibition, Applicant examined the effect of concentration on these two endpoints. HeLa cells were cultured in the presence of 0, 10, 25, 50, or 100 nM of triptolide and separately assessed for cell death or the ability to suppress NFκB transactivation promoted by TNF-α. Following 24-48 hours of culture, viable cells were recovered and counted. Following 24 hours, triptolide concentrations from 25-100 nM caused greater than 50% of the cells to undergo cell death as assessed by detachment, clumping and the failure to exclude trypan blue dye. […] This is consistent with previous studies showing that low doses of triptolide cause cell cycle arrest rather than apoptosis (Kiviharju, et al., 2002, Clin Cancer Res 8, 2666-2674).
Based upon Applicant's studies examining the concentration dependent effect of triptolide on the two measured biological endpoints, cell death and transcriptional repression, Applicant wanted to determine how modulating triptolide's structure may also discriminate between the two pathways. For cell viability assays, HeLa cells were incubated with 0, 0.1, 1, or 10 μM of each analog or triptolide for 24 hours and then counted using trypan blue dye exclusion. […] NFκB transcriptional inhibition was measured using the κB-luciferase assay as previously described following 5 hours of incubation with each analog (0-10 μM) and TNF-α addition.
HeLa cells were incubated in DMEM or SMEM (Gibco) media+10% FBS and maintained at 37° C. in 5% CO2 for all experiments. HeLa cell viability was assessed by trypan blue dye exclusion, as well as by morphological examination (non-viable cells were rounded and detached from culture plate).

CC(C)[C@]12O[C@H]1[C@@H]1O[C@]13[C@]1(O[C@H]1C[C@H]1C4=C(CC[C@@]13C)C(=O)OC4)[C@@H]2O [triptolide]
active caspase-3 (western blot) [1]: failed to implicate triptolide induced apoptosis
p21 expression (western blot) ([1]; 96 hour time course): upregulated
cell growth ([1]; over 96 hours): growth arrested
cellular fraction that binds [3H]-triptolide (HeLa cells [2]; S-100, P-100, insoluble fractions): predominantly to the membrane fraction (P-100)
total cellular counts (bound triptolide) found in the cytosolic fraction (HeLa cells [2]; S-100 fraction): 25%
calcium release (Fluo-4 fluorescence) (polycystin-2; Pkd2^−/− cells, 100 nM perfused): no calcium release was detected
calcium release (Fluo-4 fluorescence) (polycystin-2; Pkd2 re-expressed (Rex) in Pkd2^−/− background, 100 nM): restored calcium release
minimal incubation time required for commitment to apoptosis (HeLa cells [3]): three to four hours
effect on cell proliferation and cell death (HeLa cells [3]; 10 nM, 48 hours): inhibited cell proliferation but did not induce cell death
cell death (HeLa cells [3]; 0.1 μM, 24 hours): 60%
cell death (HeLa cells [3]; 0.1 μM, 24 hours, listed as Triptolide): greater than 50%
cells died (HeLa cells [3]; 100 nM, calcium free media, 72 hours): 35%
cell death (HeLa cells [3]; 100 nM, calcium-containing medium, by 24 hours): at least 50%
cells undergoing cell death (HeLa cells [3]; 25-100 nM, 24 hours): greater than 50%
cells died (HeLa cells [3]; 25-100 nM, 48 hours): nearly all cells
